ChEMBL document CHEMBL1201862, “PubChem BioAssay data set” (2004)
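Assay format: 96-well plates, 48-hour exposure. GI50: concentration for 50% inhibition of growth.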 The source made the active and inactive calls. No stated cut-off is given here; in the data, active = GI50 up to about 1.1 µM and inactive = higher.

Columns and labels:
Assay in all cases: inhibition of tumour cell growth, NCI panel, 48 h
[1] = system: CAKI-1
[2] = system: COLO 205
[3] = system: HCT-15
[4] = system: HL-60
[5] = system: K562
[6] = system: LOX IMVI
[7] = system: MOLT-4
[8] = system: Malme-3M
[9] = system: NCI-H226
[10] = system: SK-MEL-5
[11] = system: SK-OV-3
[12] = system: SN12C
[13] = system: UACC-62
[14] = system: 786-0
[15] = system: A549
[16] = system: OVCAR-5
[17] = system: RXF 393

SMILES | GI50 [1] | GI50 [2] | GI50 [3] | GI50 [4] | GI50 [5] | GI50 [6] | GI50 [7] | GI50 [8] | GI50 [9] | GI50 [10] | GI50 [11] | GI50 [12] | GI50 [13] | GI50 [14] | GI50 [15] | GI50 [16] | GI50 [17]
COc1ccc(/C(Cl)=C(\C=O)c2ccc(F)cc2)cc1OC | 19.1 µM (inactive) | 19.6 µM (inactive) | 12.8 µM | 7.16 µM (inactive) | 16.8 µM (inactive) | 14.2 µM (inactive) | 9.91 µM (inactive) | 30.5 µM (inactive) | 14 µM (inactive) | 15.3 µM (inactive) | 39.4 µM (inactive) | 15.9 µM (inactive) | 14.5 µM (inactive) |  |  |  | 
N#CC(/C(CCC(=O)Nc1ccc(Cl)cc1)=N/NC(=O)c1cc2ccccc2cc1O)c1ccccc1 (centres undefined) |  | 40.3 µM (inactive) |  | 6.53 µM (inactive) |  | 14.5 µM (inactive) | 22.2 µM (inactive) | 50 µM (inactive) | 42.2 µM (inactive) | 19.4 µM (inactive) |  | 43.4 µM (inactive) | 25.1 µM (inactive) | 38.3 µM (inactive) | 40.8 µM (inactive) | 22.8 µM (inactive) | 56.5 µM (inactive)
COC(=O)C1=NC(=S)NC(c2ccccc2)C1c1nc2ccccc2s1 (centres undefined) | > 100 µM (inactive) | > 100 µM (inactive) | > 100 µM | 98.2 µM (inactive) |  |  | > 100 µM (inactive) | > 100 µM (inactive) | > 100 µM (inactive) | > 100 µM (inactive) | > 100 µM (inactive) | > 100 µM (inactive) | > 100 µM (inactive) | > 100 µM (inactive) | > 100 µM (inactive) |  | > 100 µM (inactive)
O=C1NC(Cc2ccc(O)cc2)C(=O)N2CCCC12 (centres undefined) | > 100 µM (inactive) | > 100 µM (inactive) | > 100 µM | > 100 µM (inactive) | > 100 µM (inactive) | > 100 µM (inactive) | > 100 µM (inactive) | > 100 µM (inactive) | > 100 µM (inactive) | > 100 µM (inactive) | > 100 µM (inactive) | > 100 µM (inactive) | > 100 µM (inactive) | > 100 µM (inactive) | > 100 µM (inactive) | > 100 µM (inactive) | > 100 µM (inactive)
CCOC(=O)C(C)NC(=O)NC12CC3CC(CC(F)(C3)C1)C2 (centres undefined) |  | 41.7 µM (inactive) |  | 61.5 µM (inactive) | > 100 µM (inactive) | > 100 µM (inactive) | 62.1 µM (inactive) | 63 µM (inactive) |  | 46 µM (inactive) | > 100 µM (inactive) |  | > 100 µM (inactive) | > 100 µM (inactive) | > 100 µM (inactive) | > 100 µM (inactive) | 27.5 µM (inactive)
O=C(NCCCCCCNC(=O)OCCSCCn1cc(C(=O)NC(=O)OCc2ccccc2)c(=O)[nH]c1=O)OCCSCCn1cc(C(=O)NC(=O)OCc2ccccc2)c(=O)[nH]c1=O | > 100 µM (inactive) | > 100 µM (inactive) | > 100 µM |  | > 100 µM (inactive) | > 100 µM (inactive) | > 100 µM (inactive) | > 100 µM (inactive) | > 100 µM (inactive) | > 100 µM (inactive) |  | > 100 µM (inactive) | > 100 µM (inactive) | > 100 µM (inactive) | > 100 µM (inactive) | > 100 µM (inactive) | 45.5 µM (inactive)
O=c1[nH]c(=O)n([C@H]2C[C@@H](CO)[C@@H](O)C2)cc1I | > 100 µM (inactive) | > 100 µM (inactive) | > 100 µM | > 100 µM (inactive) | > 100 µM (inactive) | > 100 µM (inactive) | > 100 µM (inactive) | > 100 µM (inactive) | > 100 µM (inactive) | > 100 µM (inactive) | > 100 µM (inactive) | > 100 µM (inactive) | > 100 µM (inactive) | > 100 µM (inactive) | > 100 µM (inactive) | > 100 µM (inactive) | 
Cc1ccc(Nc2nc3c(s2)C(=O)c2ccccc2C3=O)c(C)c1 | 14.2 µM (inactive) | 18.9 µM (inactive) | 17.5 µM | 2.19 µM (inactive) | 10.9 µM (inactive) | 13.3 µM (inactive) | 3.94 µM (inactive) | 13.6 µM (inactive) | 12.1 µM (inactive) | 13.1 µM (inactive) | 29.6 µM (inactive) | 16.9 µM (inactive) | 13.8 µM (inactive) | 17.5 µM (inactive) | 16.6 µM (inactive) | 19.8 µM (inactive) | 15.6 µM (inactive)
O=C(O)CCC(=O)Oc1ccc(O)c2c1CCCC2=O |  | > 100 µM (inactive) | > 100 µM | > 100 µM (inactive) | > 100 µM (inactive) | > 100 µM (inactive) | > 100 µM (inactive) | > 100 µM (inactive) | > 100 µM (inactive) | 49.8 µM (inactive) | > 100 µM (inactive) | > 100 µM (inactive) | 69.7 µM (inactive) | > 100 µM (inactive) | > 100 µM (inactive) | > 100 µM (inactive) | > 100 µM (inactive)
